Laboratory results from patent US8758816B2, “Compositions comprising azelastine and methods of use thereof” (priority 2004, dated 2014).
Counter-ions that a name gives are not always drawn. Like-named read-outs stand apart in the source and are kept apart here.

How the values were obtained:
[1] = tested on: patients with seasonal allergic rhinitis (SAR); assay: MP 428 study: 14.3.5 Vital Sign Assessments, Safety Population
[2] = Leaching of azelastine into the polymer of unit dose containers; type: physicochemical
[3] = tested on: patients with seasonal allergic rhinitis (SAR); settings: in vivo
[4] = human, in vivo; cited from earlier work
[5] = Day 14, Patients of Age 12 to 17
[6] = Day 14, Patients of Age 18 and Beyond
[7] = Day 14, baseline at Screening, Patients of Age 12 to 17
[8] = Day 14, baseline at Screening, Patients of Age 18 and Beyond
[9] = Day 14, baseline at Screening, Safety Population
[10] = Screening, Patients of Age 12 to 17
[11] = Screening, Patients of Age 18 and Beyond

Structure (SMILES): CCC(=O)O[C@]1(C(=O)SCF)[C@H](C)C[C@H]2[C@@H]3C[C@H](F)C4=CC(=O)C=C[C@]4(C)[C@@]3(F)[C@@H](O)C[C@@]21C [Fluticasone, fluticasone propionate]
- Diastolic Blood Pressure, Actual, Mean ([1]; Day 1, Safety Population): 74.0 mmHg
- Diastolic Blood Pressure, Actual, Median ([1]; Day 1, Safety Population): 76.0 mmHg
- Diastolic Blood Pressure, Actual, Min-Max ([1]; Day 1, Safety Population): 41-89 mmHg
- Pulse Rate, Actual, Mean ([1]; Day 1, Safety Population): 75.0 bpm
- Pulse Rate, Actual, Median ([1]; Day 1, Safety Population): 75.0 bpm
- Pulse Rate, Actual, Min-Max ([1]; Day 1, Safety Population): 57-92 bpm
- Respiration, Actual, Mean ([1]; Day 1, Safety Population): 15.8 bpm
- Respiration, Actual, Median ([1]; Day 1, Safety Population): 16.0 bpm
- Respiration, Actual, Min-Max ([1]; Day 1, Safety Population): 12-18 bpm
- Systolic Blood Pressure, Actual, Mean ([1]; Day 1, Safety Population): 117.9 mmHg
- Systolic Blood Pressure, Actual, Median ([1]; Day 1, Safety Population): 118.5 mmHg
- Systolic Blood Pressure, Actual, Min-Max ([1]; Day 1, Safety Population): 93-142 mmHg
- Temperature, Actual, Mean ([1]; Day 1, Safety Population): 97.89 ° F.
- Temperature, Actual, Median ([1]; Day 1, Safety Population): 97.85 ° F.
- Temperature, Actual, Min-Max ([1]; Day 1, Safety Population): 97.0-99.8 ° F.
- Diastolic Blood Pressure, Actual, Mean ([1]; Day 7, Safety Population): 72.7 mmHg
- Diastolic Blood Pressure, Actual, Median ([1]; Day 7, Safety Population): 74.0 mmHg
- Diastolic Blood Pressure, Actual, Min-Max ([1]; Day 7, Safety Population): 58-86 mmHg
- Diastolic Blood Pressure, Change from baseline, Mean ([1]; Day 7, Safety Population): −1.5 mmHg
- Diastolic Blood Pressure, Change from baseline, Median ([1]; Day 7, Safety Population): −1.5 mmHg
- Diastolic Blood Pressure, Change from baseline, Min-Max ([1]; Day 7, Safety Population): −15-19 mmHg
- Pulse Rate, Actual, Mean ([1]; Day 7, Safety Population): 75.5 bpm
- Pulse Rate, Actual, Median ([1]; Day 7, Safety Population): 74.0 bpm
- Pulse Rate, Actual, Min-Max ([1]; Day 7, Safety Population): 52-102 bpm
- Pulse Rate, Change from baseline, Mean ([1]; Day 7, Safety Population): 0.5 bpm
- Pulse Rate, Change from baseline, Median ([1]; Day 7, Safety Population): −2.0 bpm
- Pulse Rate, Change from baseline, Min-Max ([1]; Day 7, Safety Population): −29-38 bpm
- Respiration, Actual, Mean ([1]; Day 7, Safety Population): 16.0 bpm
- Respiration, Actual, Median ([1]; Day 7, Safety Population): 16.0 bpm
- Respiration, Actual, Min-Max ([1]; Day 7, Safety Population): 12-20 bpm
- Respiration, Change from baseline, Mean ([1]; Day 7, Safety Population): 0.2 bpm
- Respiration, Change from baseline, Median ([1]; Day 7, Safety Population): 0.0 bpm
- Respiration, Change from baseline, Min-Max ([1]; Day 7, Safety Population): −4-4 bpm
- Systolic Blood Pressure, Actual, Mean ([1]; Day 7, Safety Population): 116.7 mmHg
- Systolic Blood Pressure, Actual, Median ([1]; Day 7, Safety Population): 116.0 mmHg
- Systolic Blood Pressure, Actual, Min-Max ([1]; Day 7, Safety Population): 95-142 mmHg
- Systolic Blood Pressure, Change from baseline, Mean ([1]; Day 7, Safety Population): −1.4 mmHg
- Systolic Blood Pressure, Change from baseline, Median ([1]; Day 7, Safety Population): −0.5 mmHg
- Systolic Blood Pressure, Change from baseline, Min-Max ([1]; Day 7, Safety Population): −21-15 mmHg
- Temperature, Actual, Mean ([1]; Day 7, Safety Population): 97.90 ° F.
- Temperature, Actual, Median ([1]; Day 7, Safety Population): 97.95 ° F.
- Temperature, Actual, Min-Max ([1]; Day 7, Safety Population): 96.0-98.9 ° F.
- Temperature, Change from baseline, Mean ([1]; Day 7, Safety Population): −0.03 ° F.
- Temperature, Change from baseline, Median ([1]; Day 7, Safety Population): 0.00 ° F.
- Temperature, Change from baseline, Min-Max ([1]; Day 7, Safety Population): −1.8-1.8 ° F.
- Body Weight for Patients of Age 12 to 17, Actual, Mean [1, 5]: 135.8 lb
- Body Weight for Patients of Age 12 to 17, Actual, Median [1, 5]: 121.5 lb
- Body Weight for Patients of Age 12 to 17, Actual, Min-Max [1, 5]: 87-197 lb
- Body Weight for Patients of Age 18 and Beyond, Actual, Mean [1, 6]: 178.2 lb
- Body Weight for Patients of Age 18 and Beyond, Actual, Median [1, 6]: 172.0 lb
- Body Weight for Patients of Age 18 and Beyond, Actual, Min-Max [1, 6]: 115-265 lb
- Body Weight, Actual, Mean ([1]; Day 14, Safety Population): 173.0 lb
- Body Weight, Actual, Median ([1]; Day 14, Safety Population): 168.0 lb
- Body Weight, Actual, Min-Max ([1]; Day 14, Safety Population): 87-265 lb
- Diastolic Blood Pressure, Actual, Mean ([1]; Day 14, Safety Population): 73.6 mmHg
- Diastolic Blood Pressure, Actual, Median ([1]; Day 14, Safety Population): 74.0 mmHg
- Diastolic Blood Pressure, Actual, Min-Max ([1]; Day 14, Safety Population): 54-90 mmHg
- Diastolic Blood Pressure, Change from baseline, Mean ([1]; Day 14, Safety Population): −0.4 mmHg
- Diastolic Blood Pressure, Change from baseline, Median ([1]; Day 14, Safety Population): 0.0 mmHg
- Diastolic Blood Pressure, Change from baseline, Min-Max ([1]; Day 14, Safety Population): −24-22 mmHg
- Pulse Rate, Actual, Mean ([1]; Day 14, Safety Population): 75.3 bpm
- Pulse Rate, Actual, Median ([1]; Day 14, Safety Population): 74.0 bpm
- Pulse Rate, Actual, Min-Max ([1]; Day 14, Safety Population): 53-95 bpm
- Pulse Rate, Change from baseline, Mean ([1]; Day 14, Safety Population): 0.3 bpm
- Pulse Rate, Change from baseline, Median ([1]; Day 14, Safety Population): 1.0 bpm
- Pulse Rate, Change from baseline, Min-Max ([1]; Day 14, Safety Population): −22-23 bpm
- Respiration, Actual, Mean ([1]; Day 14, Safety Population): 15.8 bpm
- Respiration, Actual, Median ([1]; Day 14, Safety Population): 16.0 bpm
- Respiration, Actual, Min-Max ([1]; Day 14, Safety Population): 12-20 bpm
- Respiration, Change from baseline, Mean ([1]; Day 14, Safety Population): 0.0 bpm
- Respiration, Change from baseline, Median ([1]; Day 14, Safety Population): 0.0 bpm
- Respiration, Change from baseline, Min-Max ([1]; Day 14, Safety Population): −4-4 bpm
- Systolic Blood Pressure, Actual, Mean ([1]; Day 14, Safety Population): 118.9 mmHg
- Systolic Blood Pressure, Actual, Median ([1]; Day 14, Safety Population): 117.0 mmHg
- Systolic Blood Pressure, Actual, Min-Max ([1]; Day 14, Safety Population): 98-170 mmHg
- Systolic Blood Pressure, Change from baseline, Mean ([1]; Day 14, Safety Population): 1.0 mmHg
- Systolic Blood Pressure, Change from baseline, Median ([1]; Day 14, Safety Population): 1.5 mmHg
- Systolic Blood Pressure, Change from baseline, Min-Max ([1]; Day 14, Safety Population): −20-40 mmHg
- Temperature, Actual, Mean ([1]; Day 14, Safety Population): 97.86 ° F.
- Temperature, Actual, Median ([1]; Day 14, Safety Population): 97.90 ° F.
- Temperature, Actual, Min-Max ([1]; Day 14, Safety Population): 96.2-99.1 ° F.
- Temperature, Change from baseline, Mean ([1]; Day 14, Safety Population): −0.03 ° F.
- Temperature, Change from baseline, Median ([1]; Day 14, Safety Population): 0.10 ° F.
- Temperature, Change from baseline, Min-Max ([1]; Day 14, Safety Population): −1.6-2.0 ° F.
- Body Weight for Patients of Age 12 to 17, Change from baseline, Mean [1, 7]: −0.5 lb
- Body Weight for Patients of Age 12 to 17, Change from baseline, Median [1, 7]: −0.5 lb
- Body Weight for Patients of Age 12 to 17, Change from baseline, Min-Max [1, 7]: −2-2 lb
- Body Weight for Patients of Age 18 and Beyond, Change from baseline, Mean [1, 8]: −0.5 lb
- Body Weight for Patients of Age 18 and Beyond, Change from baseline, Median [1, 8]: 0.0 lb
- Body Weight for Patients of Age 18 and Beyond, Change from baseline, Min-Max [1, 8]: −6-7 lb
- Body Weight, Change from baseline, Mean [1, 9]: −0.5 lb
- Body Weight, Change from baseline, Median [1, 9]: 0.0 lb
- Body Weight, Change from baseline, Min-Max [1, 9]: −6-7 lb
- Body Weight for Patients of Age 12 to 17, Actual, Mean [1, 10]: 136.3 lb
- Body Weight for Patients of Age 12 to 17, Actual, Median [1, 10]: 122.5 lb
- Body Weight for Patients of Age 12 to 17, Actual, Min-Max [1, 10]: 85-199 lb
- Body Weight for Patients of Age 18 and Beyond, Actual, Mean [1, 11]: 177.9 lb
- Body Weight for Patients of Age 18 and Beyond, Actual, Median [1, 11]: 169.5 lb
- Body Weight for Patients of Age 18 and Beyond, Actual, Min-Max [1, 11]: 117-269 lb
- Body Weight, Actual, Mean ([1]; Screening, Safety Population): 172.9 lb
- Body Weight, Actual, Median ([1]; Screening, Safety Population): 168.5 lb
- Body Weight, Actual, Min-Max ([1]; Screening, Safety Population): 85-269 lb
- Diastolic Blood Pressure, Actual, Mean ([1]; Screening, Safety Population): 75.6 mmHg
- Diastolic Blood Pressure, Actual, Median ([1]; Screening, Safety Population): 78.0 mmHg
- Diastolic Blood Pressure, Actual, Min-Max ([1]; Screening, Safety Population): 50-95 mmHg
- Pulse Rate, Actual, Mean ([1]; Screening, Safety Population): 75.5 bpm
- Pulse Rate, Actual, Median ([1]; Screening, Safety Population): 78.0 bpm
- Pulse Rate, Actual, Min-Max ([1]; Screening, Safety Population): 50-103 bpm
- Respiration, Actual, Mean ([1]; Screening, Safety Population): 15.7 bpm
- Respiration, Actual, Median ([1]; Screening, Safety Population): 16.0 bpm
- Respiration, Actual, Min-Max ([1]; Screening, Safety Population): 12-20 bpm
- Systolic Blood Pressure, Actual, Mean ([1]; Screening, Safety Population): 121.2 mmHg
- Systolic Blood Pressure, Actual, Median ([1]; Screening, Safety Population): 119.5 mmHg
- Systolic Blood Pressure, Actual, Min-Max ([1]; Screening, Safety Population): 96-156 mmHg
- Temperature, Actual, Mean ([1]; Screening, Safety Population): 98.04 ° F.
- Temperature, Actual, Median ([1]; Screening, Safety Population): 98.00 ° F.
- Temperature, Actual, Min-Max ([1]; Screening, Safety Population): 96.9-99.3 ° F.

Structure (SMILES): CN1CCCC(n2nc(Cc3ccc(Cl)cc3)c3ccccc3c2=O)CC1 (racemic) [Azelastine, (±)-1-(2H)-phthalazinone, 4-[(4-chlorophenyl)methyl]-2-(hexahydro-1-methyl-1H-azepin-4-yl)-, mono-hydrochloride]
- leaching into the container material ([2]; HDPE unit dose containers, in contrast to lower-density PE): reduce, substantially reduce, or eliminate leaching
- leachability into the container material ([2]; containers of polymers other than HDPE, including polyethylenes of lower density): high degree of undesirable leachability
- Body Weight for Patients of Age 12 to 17, Actual, Mean [3]: 104.7 lb
- Body Weight for Patients of Age 12 to 17, Actual, Median [3]: 104.0 lb
- Body Weight for Patients of Age 12 to 17, Actual, Min-Max [3]: 98-112 lb
- Body Weight for Patients of Age 18 and Beyond, Actual, Mean [3]: 186.2 lb
- Body Weight for Patients of Age 18 and Beyond, Actual, Median [3]: 177.8 lb
- Body Weight for Patients of Age 18 and Beyond, Actual, Min-Max [3]: 102-284 lb
- Body Weight, Actual, Mean [3]: 181.2 lb
- Body Weight, Actual, Median [3]: 174.0 lb
- Body Weight, Actual, Min-Max [3]: 98-284 lb
- Respiration, Actual, Median [3]: 16.0 bpm
- Respiration, Change from baseline, Median [3]: 0.0 bpm
- Respiration, Change from baseline, Min-Max [3]: −4-4 bpm
- bitter taste adverse event [4]: 19.7%
